Source: ChEMBL document CHEMBL5727281, “N2-phenyl-pyrido[3,4-D]pyrimidine-2, 8-diamine derivatives and their use as Mps1 inhibitors” (2019)

Target: T1, Dual specificity protein kinase TTK (Homo sapiens, UniProt P33981)
T1 sequence (P33981 whole entry): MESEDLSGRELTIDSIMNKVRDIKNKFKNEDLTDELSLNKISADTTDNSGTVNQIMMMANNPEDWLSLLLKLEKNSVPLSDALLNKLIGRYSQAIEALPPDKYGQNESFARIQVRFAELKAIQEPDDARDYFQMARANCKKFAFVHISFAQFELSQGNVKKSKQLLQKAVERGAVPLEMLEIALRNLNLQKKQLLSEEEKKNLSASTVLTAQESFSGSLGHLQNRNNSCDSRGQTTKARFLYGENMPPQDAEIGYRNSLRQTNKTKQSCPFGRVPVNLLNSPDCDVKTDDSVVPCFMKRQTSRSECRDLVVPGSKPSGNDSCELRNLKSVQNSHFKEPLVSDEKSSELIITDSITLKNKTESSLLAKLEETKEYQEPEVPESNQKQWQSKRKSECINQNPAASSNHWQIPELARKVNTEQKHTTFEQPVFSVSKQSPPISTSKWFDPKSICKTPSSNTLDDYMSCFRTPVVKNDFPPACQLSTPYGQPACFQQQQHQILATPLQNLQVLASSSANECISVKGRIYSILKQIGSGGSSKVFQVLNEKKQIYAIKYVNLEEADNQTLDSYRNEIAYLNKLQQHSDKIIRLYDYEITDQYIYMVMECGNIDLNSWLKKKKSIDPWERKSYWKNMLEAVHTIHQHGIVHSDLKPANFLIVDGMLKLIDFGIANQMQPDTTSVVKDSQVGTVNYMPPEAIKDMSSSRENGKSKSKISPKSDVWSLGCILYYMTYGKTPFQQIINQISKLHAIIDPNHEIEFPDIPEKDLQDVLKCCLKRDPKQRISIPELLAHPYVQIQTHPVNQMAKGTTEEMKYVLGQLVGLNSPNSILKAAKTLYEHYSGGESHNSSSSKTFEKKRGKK
Assay: The reaction was carried out for 60 min at room temperature and stopped by the addition of buffer (10 μl) containing 20 mM EDTA, 0.05% (v/v) Brij-35, in 0.1M HEPES-buffered saline (Free acid, Sigma, UK). […] The % inhibition of the compounds is calculated relative to the means of selected control wells. […] The % inhibitions at each concentration are then fitted to a 4 parameter logistic fit.

Structure (SMILES)	IC50 [nM]
CCOc1cc(-c2nncn2C)ccc1Nc1ncc2cc(C)nc(N3CC(O)(CC)C3)c2n1	4
COc1cc(-c2cnc(C)n2C)ccc1Nc1ncc2cc(C)nc(N3CC(C)(C#N)C3)c2n1	2
COc1cc(-c2cnc(C)n2C)ccc1Nc1ncc2cc(C)nc(NCC3(C)CCOC3)c2n1 (stereo not drawn)	2
CCOc1cc(-c2nncn2C)ccc1Nc1ncc2cc(C)nc(N3CCC(C#N)C3)c2n1 (stereo not drawn)	3
CCOc1cc(-c2nncn2C)ccc1Nc1ncc2cc(C)nc(N3CC4(CCCC4)C3)c2n1	2
CCOc1cc(-c2nncn2C)ccc1Nc1ncc2cc(C)nc(N3CCC(C)(C#N)C3)c2n1 (stereo not drawn)	3
CCOc1cc(-c2nncn2C)ccc1Nc1ncc2cc(C)nc(N3CCC(C)(OC)CC3)c2n1	3
CCOc1cc(-c2nncn2C)ccc1Nc1ncc2cc(C)nc(N3CC(F)(F)C3)c2n1	6
